Measurements taken from publication PMC9821961, “Ring-Modified Histidine-Containing Cationic Short Peptides Exhibit Anticryptococcal Activity by Cellular Disruption” (Molecules, 2022).
In brackets after ≈: the same amount, converted by molar mass. Read-outs that look alike come from different tables or passages of the source. Each block holds one molecule with its values, some of them ahead of it.

Legend:
[1] = tested on: C. neoformans cells; assay: CLSM FITC-labeled peptide uptake assay; format: cell-based, Cryptococcus neoformans; details: FITC-tagged peptide, 12 h
Procedure: After incubation, cells were harvested by centrifugation at 2000× g for 10 min at 4 °C and suspended in PBS and mounted on a slide for visualization under a confocal microscope with excitation and emission wavelengths of 488 nm and 515 nm, respectively.

[2] = tested on: C. parapsilosis; assay: microbe, parasite or virus in culture; format: cell-based, Candida parapsilosis
From the text: (§1) Microbial strains: Microbial strains were procured from National Culture Collection of Pathogenic Fungi (NCCPF) at the Postgraduate Institute of Medical Education & Research (PGIMER), Chandigarh and Microbial Type Culture Collection and Gene bank (MTCC) at the Institute of Microbial Technology (IMTECH), Chandigarh, India. Peptides were screened against five different strains of fungi: viz. Candida albicans (NCCPF400034), Candida glabrata (MTCC 3019), Candida parapsilosis (NCCPF 440002), Candida krusei (NCCPF 440002) and Cryptococcus neoformans (NCCPF250316), and five strains of bacteria: viz. Escherichia coli (MTCC 2961), Staphylococcus aureus (MTCC 3160), Enterococcus faecalis (MTCC 439), Streptococcus pyogenes (MTCC 442) and Pseudomonas aeruginosa (MTCC 3542).
(§2) Growth media: Antifungal susceptibility testing was carried out using standard broth microdilution assays as per the Clinical and Laboratory Standards Institute (CLSI) guidelines for fungi. RPMI 1640 (Sigma), yeast extract, peptone and dextrose (YPED, Himedia) were used as the incubation broths. The cells were diluted to a cell density of 10^3 colony forming unit (CFU/mL) and incubated at 30 °C for 48 h. Furthermore, Muller Hinton (Himedia) media was utilized for bacterial strains and antibacterial activity was evaluated per CLSI guidelines for bacteria. Bacterial cells were diluted to a cell density of 10^5 CFU/mL and incubated at 37 °C for 24 h. Amphotericin B (Himedia, India) and rifampicin (Himedia, India) were used as standard drugs for the evaluation of activity against all the fungal and bacterial strains, respectively.
(§3) The stock solutions of peptides (2 mg/mL) were prepared in DMSO. Specific amounts of peptide from stock solution were added to a 96-well microtiter plate containing 100 μL of growth media and then serially diluted two-fold. A further 100 μL of growth media containing microbial cells were added to each well and incubated at 30–37 °C for 24–48 h. The optical density (OD) was measured at 600 nm using a BioStack Ready (BioTek Instruments, Winooski, VT, USA) microplate reader to analyze microbial growth inhibition, and IC50 and MIC values were calculated. To visualize the growth and inhibition pattern, a solution of 3-(4,5-dimethylthiazol-2-yl)-2,5-diphenyltetrazolium bromide (MTT) in water was added to the plate and incubated for 2–3 h. MTT reacts with the mitochondrial dehydrogenases, which are present only in a viable cell, to give blue colored formazan crystals. Therefore, a darker color indicates a high number of viable cells; however, non-viable cells appear pale or colorless.

[3] = tested on: C. krusei; assay: microbe, parasite or virus in culture; format: cell-based, Candida krusei
From the text: as §1, §2, §3

[4] = tested on: C. glabrata; assay: microbe, parasite or virus in culture; format: cell-based, Candida glabrata
From the text: as §1, §2, §3

[5] = tested on: C. neoformans; assay: microbe, parasite or virus in culture; format: cell-based, Cryptococcus neoformans
From the text: as §1, §2, §3

[6] = tested on: C. albicans; assay: microbe, parasite or virus in culture; format: cell-based, Candida albicans
From the text: as §1, §2, §3

[7] = tested on: Cryptococcal cells; assay: microbe, parasite or virus in culture; details: Cryptococcus neoformans, read-out: MIC Alone
[8] = tested on: Cryptococcal cells
[9] = tested on: C. neoformans cells; assay: Time kill assay; details: time-kill profile over 24 h

- IC50 ([2]; 48 h): >35.2 µg/mL
- MIC ([2]; 48 h): >64.0 µg/mL
- IC50 ([3]; 48 h): >35.2 µg/mL
- MIC ([3]; 48 h): >64.0 µg/mL
- IC50 ([4]; 48 h): >35.2 µg/mL
- MIC ([4]; 48 h): >64.0 µg/mL
- MIC ([5]; 48 h): >64.0 µg/mL
- IC50 ([6]; 48 h): >35.2 µg/mL
- MIC ([6]; 48 h): >64.0 µg/mL
SMILES: COC(=O)[C@H](Cc1ncn(Cc2ccc([N+](=O)[O-])cc2)c1I)NC(=O)[C@@H](N)Cc1c[nH]c2ccccc12 [10h]
- Fluorescence of cells incubated with FITC-labeled peptide (CLSM) [1]: did not show any fluorescence

- MIC [7]: 1 µg/mL (≈ 1.08 µM)
- Fold Decrease in MIC ([8]; combination 10o + Amp B): 4
- MIC In Combination ([8]; combination 10o + Amp B): 0.250 µg/mL
- Fold Decrease in MIC ([8]; combination 10d + Amp B): 8
- MIC In Combination ([8]; combination 10d + Amp B): 0.125 µg/mL
- IC50 ([2]; Lodderomyces parapsilosis, C. parapsilosis, read-out: IC50): 0.36 µg/mL (≈ 0.39 µM)
- MIC ([2]; Lodderomyces parapsilosis, C. parapsilosis, read-out: MIC): 0.72 µg/mL (≈ 0.779 µM)
- IC50 ([3]; Pichia kudriavzevii, C. krusei, read-out: IC50): 0.36 µg/mL (≈ 0.39 µM)
- MIC ([3]; Pichia kudriavzevii, C. krusei, read-out: MIC): 0.72 µg/mL (≈ 0.779 µM)
- IC50 ([4]; Nakaseomyces glabratus, C. glabrata, read-out: IC50): 0.18 µg/mL (≈ 0.195 µM)
- MIC ([4]; Nakaseomyces glabratus, C. glabrata, read-out: MIC): 0.36 µg/mL (≈ 0.39 µM)
- IC50 ([5]; Cryptococcus neoformans, C. neoformans, concentration that leads to ~50% inhibition of growth, read-out: IC50): 0.5 µg/mL (≈ 0.541 µM)
- MIC ([5]; Cryptococcus neoformans, C. neoformans, lowest test concentration with no detectable growth, read-out: MIC): 1 µg/mL (≈ 1.08 µM)
- IC50 ([6]; Candida albicans, C. albicans, read-out: IC50): 0.36 µg/mL (≈ 0.39 µM)
- MIC ([6]; Candida albicans, C. albicans, read-out: MIC): 0.72 µg/mL (≈ 0.779 µM)
SMILES: C[C@@H]1[C@H](O)[C@@H](C)/C=C/C=C/C=C/C=C/C=C/C=C/C=C/[C@H](O[C@@H]2O[C@H](C)[C@@H](O)[C@H](N)[C@@H]2O)C[C@@H]2O[C@](O)(C[C@@H](O)C[C@@H](O)[C@H](O)CC[C@@H](O)C[C@@H](O)CC(=O)O[C@H]1C)C[C@H](O)[C@H]2C(=O)O [Amphotericin B, reference compound]
- Effect ([8]; combination 10o + Amp B): Synergistic
- FICI ([8]; combination 10o + Amp B): 0.31
- Effect ([8]; combination 10d + Amp B): Synergistic
- FICI ([8]; combination 10d + Amp B): 0.18
- Time after which growth/CFUs of cryptococcal cells dropped or were inhibited [9]: 4 h

SMILES: OC(Cn1cncn1)(Cn1cncn1)c1ccc(F)cc1F [Flu, fluconazole]
- MIC [7]: 10 µg/mL (≈ 32.7 µM)
- Effect ([8]; combination 10o + Flu): Additive
- FICI ([8]; combination 10o + Flu): 1.00
- Fold Decrease in MIC ([8]; combination 10o + Flu): 2
- MIC In Combination ([8]; combination 10o + Flu): 5.0 µg/mL
- Effect ([8]; combination 10d + Flu): Synergistic
- FICI ([8]; combination 10d + Flu): 0.19
- Fold Decrease in MIC ([8]; combination 10d + Flu): 16
- MIC In Combination ([8]; combination 10d + Flu): 0.625 µg/mL
- Fold Decrease in MIC ([8]; combination 10d + Flu, listed as fluconazole): approx. 16
- MIC Alone ([8]; cryptococcal cells, agent alone): 10.0 µg/mL (≈ 32.7 µM)
